Residue numbers refer to the chain shown, from its start.
biological target: T1, AR protein (Homo sapiens, UniProt P10275); test: Degradation of AR protein in VCaP cells (Western blot); format: cell-based; conditions: compound at 10 nM, 8 hours, read-out: Degradation rate of the AR protein in VCaP cells, 10 nM (%)
T1 construct: degradation activity of the compounds disclosed in the present disclosure on AR protein in VCaP cells; host or cells: VCaP
T1 sequence (P10275 1-920): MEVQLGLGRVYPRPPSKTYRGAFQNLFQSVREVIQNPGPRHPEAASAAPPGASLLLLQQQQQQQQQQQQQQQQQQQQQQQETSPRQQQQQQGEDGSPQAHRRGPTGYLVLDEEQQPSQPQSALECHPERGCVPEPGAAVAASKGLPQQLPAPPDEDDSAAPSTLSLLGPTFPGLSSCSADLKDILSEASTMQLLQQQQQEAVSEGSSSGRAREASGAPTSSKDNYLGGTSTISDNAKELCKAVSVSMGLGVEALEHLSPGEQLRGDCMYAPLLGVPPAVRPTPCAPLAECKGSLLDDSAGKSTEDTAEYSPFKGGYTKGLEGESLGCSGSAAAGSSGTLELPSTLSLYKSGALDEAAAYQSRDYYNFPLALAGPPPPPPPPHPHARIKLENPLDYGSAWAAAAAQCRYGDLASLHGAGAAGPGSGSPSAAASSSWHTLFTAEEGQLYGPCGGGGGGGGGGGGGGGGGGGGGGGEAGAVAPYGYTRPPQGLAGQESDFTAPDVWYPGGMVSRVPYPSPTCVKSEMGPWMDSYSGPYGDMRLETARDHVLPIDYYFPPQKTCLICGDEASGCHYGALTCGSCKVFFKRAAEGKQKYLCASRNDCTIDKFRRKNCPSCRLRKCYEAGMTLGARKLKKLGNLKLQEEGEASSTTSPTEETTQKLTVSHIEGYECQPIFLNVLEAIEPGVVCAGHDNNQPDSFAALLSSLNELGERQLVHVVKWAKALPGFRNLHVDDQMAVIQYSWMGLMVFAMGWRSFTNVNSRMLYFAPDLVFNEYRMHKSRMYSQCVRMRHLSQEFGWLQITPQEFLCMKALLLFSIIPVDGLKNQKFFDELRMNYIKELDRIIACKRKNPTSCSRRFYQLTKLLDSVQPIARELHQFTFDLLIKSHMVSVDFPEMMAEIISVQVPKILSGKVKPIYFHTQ
Outline: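 VCaP cells treated with compound alongside solvent controls for 8 h, then lysed in RIPA and protein quantified by BCA. AR detected by SDS-PAGE/Western blot with infrared imaging. Degradation rate calculated from band grayscale, with GAPDH as internal reference.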

Row | Structure (SMILES) | inhibition at 0.01 µM [%]
1 | CCOC1(CN2CCC3(CC2)COc2c3ccc3c2C(=O)N(C2CCC(=O)NC2=O)C3=O)CCN(c2ccc(C(=O)N[C@H]3CC[C@H](Oc4ccc(C#N)c(Cl)c4)CC3)nn2)CC1 (stereo partly drawn) [Compound 244] | 3
2 | CC1(CN2CCC3(CC2)COc2c3ccc3c2C(=O)N(C2CCC(=O)NC2=O)C3=O)CCN(c2ncc(C(=O)NC3CCC(Oc4ccc(C#N)c(Cl)c4)CC3)cn2)CC1 (stereo not drawn) [Compound 245] | 3
3 | COc1cc(OC2CCC(NC(=O)c3cnc(N4CCC(C)(CN5CCC6(CC5)COc5c6ccc6c5C(=O)N(C5CCC(=O)NC5=O)C6=O)CC4)nc3)CC2)ccc1C#N (stereo not drawn) [Compound 246] | -19
4 | CCC1(CN2CCC3(CC2)COc2c3ccc3c2C(=O)N(C2CCC(=O)NC2=O)C3=O)CCN(c2ccc(C(=O)N[C@H]3CC[C@H](Oc4ccc(C#N)c(C(F)(F)F)c4)CC3)nn2)CC1 (stereo partly drawn) [Compound 248] | 2
5 | CCC1(CN2CCC3(CC2)COc2c3ccc3c2C(=O)N(C2CCC(=O)NC2=O)C3=O)CCN(c2ccc(C(=O)N[C@H]3CC[C@H](Oc4ccc(C#N)c(Cl)c4)CC3)nn2)CC1 (stereo partly drawn) [Compound 249] | -21
6 | CCC1(CN2CCC3(CC2)COc2c3ccc3c2C(=O)N(C2CCC(=O)NC2=O)C3=O)CCN(c2ccc(C(=O)N[C@H]3CC[C@H](Oc4ccc(C#N)c(OC)c4)CC3)nn2)CC1 (stereo partly drawn) [Compound 250] | 15

same assay, conditions: compound at 100 nM, 8 hours, read-out: Degradation rate of the AR protein in VCaP cells, 100 nM (%)

Row | Structure (SMILES) | inhibition at 0.1 µM [%]
7 | CCOC1(CN2CCC3(CC2)COc2c3ccc3c2C(=O)N(C2CCC(=O)NC2=O)C3=O)CCN(c2ccc(C(=O)N[C@H]3CC[C@H](Oc4ccc(C#N)c(Cl)c4)CC3)nn2)CC1 (stereo partly drawn) [Compound 244] | 56
8 | CC1(CN2CCC3(CC2)COc2c3ccc3c2C(=O)N(C2CCC(=O)NC2=O)C3=O)CCN(c2ncc(C(=O)NC3CCC(Oc4ccc(C#N)c(Cl)c4)CC3)cn2)CC1 (stereo not drawn) [Compound 245] | 43
9 | COc1cc(OC2CCC(NC(=O)c3cnc(N4CCC(C)(CN5CCC6(CC5)COc5c6ccc6c5C(=O)N(C5CCC(=O)NC5=O)C6=O)CC4)nc3)CC2)ccc1C#N (stereo not drawn) [Compound 246] | 61
10 | CCC1(CN2CCC3(CC2)COc2c3ccc3c2C(=O)N(C2CCC(=O)NC2=O)C3=O)CCN(c2ccc(C(=O)N[C@H]3CC[C@H](Oc4ccc(C#N)c(C(F)(F)F)c4)CC3)nn2)CC1 (stereo partly drawn) [Compound 248] | 17
11 | CCC1(CN2CCC3(CC2)COc2c3ccc3c2C(=O)N(C2CCC(=O)NC2=O)C3=O)CCN(c2ccc(C(=O)N[C@H]3CC[C@H](Oc4ccc(C#N)c(Cl)c4)CC3)nn2)CC1 (stereo partly drawn) [Compound 249] | 56
12 | CCC1(CN2CCC3(CC2)COc2c3ccc3c2C(=O)N(C2CCC(=O)NC2=O)C3=O)CCN(c2ccc(C(=O)N[C@H]3CC[C@H](Oc4ccc(C#N)c(OC)c4)CC3)nn2)CC1 (stereo partly drawn) [Compound 250] | 61

tested on: VCaP cells; test: Inhibition of proliferation of VCaP cells (WST-8); format: cell-based; conditions: Homo sapiens; VCaP cells, 168 hours, WST-8 absorbance at 450 nm; read-out: IC50 for inhibiting the proliferation of VCaP cells
Outline: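 VCaP FGC cells, 15000 per well in DMEM with 10% FBS, were cultured at 37° C, 5% CO2. On day nine, WST-8 reagent was added to read proliferation.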

Row | Structure (SMILES) | IC50 [nM]
13 | CCOC1(CN2CCC3(CC2)COc2c3ccc3c2C(=O)N(C2CCC(=O)NC2=O)C3=O)CCN(c2ccc(C(=O)N[C@H]3CC[C@H](Oc4ccc(C#N)c(Cl)c4)CC3)nn2)CC1 (stereo partly drawn) [Compound 244] | 68
14 | CC1(CN2CCC3(CC2)COc2c3ccc3c2C(=O)N(C2CCC(=O)NC2=O)C3=O)CCN(c2ncc(C(=O)NC3CCC(Oc4ccc(C#N)c(Cl)c4)CC3)cn2)CC1 (stereo not drawn) [Compound 245] | 100
15 | COc1cc(OC2CCC(NC(=O)c3cnc(N4CCC(C)(CN5CCC6(CC5)COc5c6ccc6c5C(=O)N(C5CCC(=O)NC5=O)C6=O)CC4)nc3)CC2)ccc1C#N (stereo not drawn) [Compound 246] | 120
16 | CCC1(CN2CCC3(CC2)COc2c3ccc3c2C(=O)N(C2CCC(=O)NC2=O)C3=O)CCN(c2ccc(C(=O)N[C@H]3CC[C@H](Oc4ccc(C#N)c(C(F)(F)F)c4)CC3)nn2)CC1 (stereo partly drawn) [Compound 248] | 210
17 | CCC1(CN2CCC3(CC2)COc2c3ccc3c2C(=O)N(C2CCC(=O)NC2=O)C3=O)CCN(c2ccc(C(=O)N[C@H]3CC[C@H](Oc4ccc(C#N)c(Cl)c4)CC3)nn2)CC1 (stereo partly drawn) [Compound 249] | 220
18 | CCC1(CN2CCC3(CC2)COc2c3ccc3c2C(=O)N(C2CCC(=O)NC2=O)C3=O)CCN(c2ccc(C(=O)N[C@H]3CC[C@H](Oc4ccc(C#N)c(OC)c4)CC3)nn2)CC1 (stereo partly drawn) [Compound 250] | 160

tested on: LNCaP FGC cells; test: Inhibition of proliferation of LNCaP cells (WST-8); format: cell-based; conditions: Homo sapiens, LNCaP, 96 h, LNCaP FGC cells, 96 hours, WST-8 absorbance at 450 nm; read-out: IC50 for inhibiting the proliferation of LNCaP cells
Procedure: The cells were cultured in a cell culture incubator with 5% CO2 at 37° C. overnight. […] On the sixth day, 96 well plates were taken out, and 20 μL of WST-8 (Beytime, C0040) reagent was added to each well.

Row | Structure (SMILES) | IC50 [nM]
19 | CCOC1(CN2CCC3(CC2)COc2c3ccc3c2C(=O)N(C2CCC(=O)NC2=O)C3=O)CCN(c2ccc(C(=O)N[C@H]3CC[C@H](Oc4ccc(C#N)c(Cl)c4)CC3)nn2)CC1 (stereo partly drawn) [Compound 244] | 170
20 | CC1(CN2CCC3(CC2)COc2c3ccc3c2C(=O)N(C2CCC(=O)NC2=O)C3=O)CCN(c2ncc(C(=O)NC3CCC(Oc4ccc(C#N)c(Cl)c4)CC3)cn2)CC1 (stereo not drawn) [Compound 245] | 1820
21 | COc1cc(OC2CCC(NC(=O)c3cnc(N4CCC(C)(CN5CCC6(CC5)COc5c6ccc6c5C(=O)N(C5CCC(=O)NC5=O)C6=O)CC4)nc3)CC2)ccc1C#N (stereo not drawn) [Compound 246] | 870
22 | CCC1(CN2CCC3(CC2)COc2c3ccc3c2C(=O)N(C2CCC(=O)NC2=O)C3=O)CCN(c2ccc(C(=O)N[C@H]3CC[C@H](Oc4ccc(C#N)c(C(F)(F)F)c4)CC3)nn2)CC1 (stereo partly drawn) [Compound 248] | 5990
23 | CCC1(CN2CCC3(CC2)COc2c3ccc3c2C(=O)N(C2CCC(=O)NC2=O)C3=O)CCN(c2ccc(C(=O)N[C@H]3CC[C@H](Oc4ccc(C#N)c(Cl)c4)CC3)nn2)CC1 (stereo partly drawn) [Compound 249] | 12100
24 | CCC1(CN2CCC3(CC2)COc2c3ccc3c2C(=O)N(C2CCC(=O)NC2=O)C3=O)CCN(c2ccc(C(=O)N[C@H]3CC[C@H](Oc4ccc(C#N)c(OC)c4)CC3)nn2)CC1 (stereo partly drawn) [Compound 250] | > 90000

biological target: T2, AR protein (Homo sapiens, UniProt P10275, T878A); test: Degradation of AR protein in LNCaP cells (Western blot); format: cell-based; conditions: LNCaP cells, compound 10 nM, 8 hours, Western blot grayscale, GAPDH internal reference; read-out: Degradation rates of the AR protein in LNCaP cells, 10 nM (%)
T2 construct: degradation activity of the compounds disclosed in the present disclosure on AR protein in LNCaP cells; host or cells: LNCaP FGC
T2 sequence (P10275 1-920 T878A): T1 sequence (P10275 1-920) with T878A
Outline: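 AR assessed by SDS-PAGE/Western blot with infrared imaging; band greyscale normalised to GAPDH gave percent degradation.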

Row | Structure (SMILES) | inhibition at 0.01 µM [%]
25 | CCOC1(CN2CCC3(CC2)COc2c3ccc3c2C(=O)N(C2CCC(=O)NC2=O)C3=O)CCN(c2ccc(C(=O)N[C@H]3CC[C@H](Oc4ccc(C#N)c(Cl)c4)CC3)nn2)CC1 (stereo partly drawn) [Compound 244] | -5
26 | CC1(CN2CCC3(CC2)COc2c3ccc3c2C(=O)N(C2CCC(=O)NC2=O)C3=O)CCN(c2ncc(C(=O)NC3CCC(Oc4ccc(C#N)c(Cl)c4)CC3)cn2)CC1 (stereo not drawn) [Compound 245] | 2
27 | COc1cc(OC2CCC(NC(=O)c3cnc(N4CCC(C)(CN5CCC6(CC5)COc5c6ccc6c5C(=O)N(C5CCC(=O)NC5=O)C6=O)CC4)nc3)CC2)ccc1C#N (stereo not drawn) [Compound 246] | 17
28 | CCC1(CN2CCC3(CC2)COc2c3ccc3c2C(=O)N(C2CCC(=O)NC2=O)C3=O)CCN(c2ccc(C(=O)N[C@H]3CC[C@H](Oc4ccc(C#N)c(C(F)(F)F)c4)CC3)nn2)CC1 (stereo partly drawn) [Compound 248] | -53
29 | CCC1(CN2CCC3(CC2)COc2c3ccc3c2C(=O)N(C2CCC(=O)NC2=O)C3=O)CCN(c2ccc(C(=O)N[C@H]3CC[C@H](Oc4ccc(C#N)c(Cl)c4)CC3)nn2)CC1 (stereo partly drawn) [Compound 249] | -5
30 | CCC1(CN2CCC3(CC2)COc2c3ccc3c2C(=O)N(C2CCC(=O)NC2=O)C3=O)CCN(c2ccc(C(=O)N[C@H]3CC[C@H](Oc4ccc(C#N)c(OC)c4)CC3)nn2)CC1 (stereo partly drawn) [Compound 250] | -14

same assay, conditions: LNCaP cells, compound 100 nM, 8 hours, Western blot grayscale, GAPDH internal reference; read-out: Degradation rates of the AR protein in LNCaP cells, 100 nM (%)

Row | Structure (SMILES) | inhibition at 0.1 µM [%]
31 | CCOC1(CN2CCC3(CC2)COc2c3ccc3c2C(=O)N(C2CCC(=O)NC2=O)C3=O)CCN(c2ccc(C(=O)N[C@H]3CC[C@H](Oc4ccc(C#N)c(Cl)c4)CC3)nn2)CC1 (stereo partly drawn) [Compound 244] | 65
32 | CC1(CN2CCC3(CC2)COc2c3ccc3c2C(=O)N(C2CCC(=O)NC2=O)C3=O)CCN(c2ncc(C(=O)NC3CCC(Oc4ccc(C#N)c(Cl)c4)CC3)cn2)CC1 (stereo not drawn) [Compound 245] | 45
33 | COc1cc(OC2CCC(NC(=O)c3cnc(N4CCC(C)(CN5CCC6(CC5)COc5c6ccc6c5C(=O)N(C5CCC(=O)NC5=O)C6=O)CC4)nc3)CC2)ccc1C#N (stereo not drawn) [Compound 246] | 43
34 | CCC1(CN2CCC3(CC2)COc2c3ccc3c2C(=O)N(C2CCC(=O)NC2=O)C3=O)CCN(c2ccc(C(=O)N[C@H]3CC[C@H](Oc4ccc(C#N)c(C(F)(F)F)c4)CC3)nn2)CC1 (stereo partly drawn) [Compound 248] | -16
35 | CCC1(CN2CCC3(CC2)COc2c3ccc3c2C(=O)N(C2CCC(=O)NC2=O)C3=O)CCN(c2ccc(C(=O)N[C@H]3CC[C@H](Oc4ccc(C#N)c(Cl)c4)CC3)nn2)CC1 (stereo partly drawn) [Compound 249] | 51
36 | CCC1(CN2CCC3(CC2)COc2c3ccc3c2C(=O)N(C2CCC(=O)NC2=O)C3=O)CCN(c2ccc(C(=O)N[C@H]3CC[C@H](Oc4ccc(C#N)c(OC)c4)CC3)nn2)CC1 (stereo partly drawn) [Compound 250] | 67
